In the NIST ThermoML archive (doi:10.1016/j.jct.2010.05.009):

How the values were obtained:
[1] = refractive index (Na D-line) (dimensionless); xn = mol fraction of the nth substance listed; conditions: 101 kPa, Liquid, Standard Abbe refractometry
[2] = xn = mol fraction of the nth substance listed; conditions: 101 kPa, Liquid; for viscosity: Capillary tube (Ostwald / Ubbelohde) method; for mass density: Vibrating tube method

CCCN [propan-1-amine] + C1CCOC1
Conditions | mass density, [2] [kg/m3] | refractive index, [1] | viscosity, [2] [mPa·s]
288.15 K, x2 = 0 | 721.57 | 1.3899 | 0.3851
288.15 K, x2 = 0.0542 | 730.55 | 1.3908 | 0.3898
288.15 K, x2 = 0.1599 | 748.15 | 1.3927 | 0.3991
288.15 K, x2 = 0.1934 | 753.76 | 1.3933 | 0.4021
288.15 K, x2 = 0.3199 | 775.03 | 1.3956 | 0.4138
288.15 K, x2 = 0.4 | 788.58 | 1.397 | 0.4211
288.15 K, x2 = 0.4789 | 802.01 | 1.3985 | 0.4289
288.15 K, x2 = 0.56 | 815.87 | 1.4 | 0.4371
288.15 K, x2 = 0.6402 | 829.71 | 1.4015 | 0.4455
288.15 K, x2 = 0.7201 | 843.56 | 1.4031 | 0.4546
288.15 K, x2 = 0.8791 | 871.41 | 1.4062 | 0.4765
288.15 K, x2 = 0.9585 | 885.46 | 1.4078 | 0.4902
298.15 K, x2 = 0 | 711.08 | 1.3844 | 0.3585
298.15 K, x2 = 0.0542 | 719.96 | 1.3854 | 0.3632
298.15 K, x2 = 0.1599 | 737.23 | 1.3873 | 0.372
298.15 K, x2 = 0.1934 | 742.73 | 1.3879 | 0.3747
298.15 K, x2 = 0.3199 | 763.65 | 1.3902 | 0.3856
298.15 K, x2 = 0.4 | 777.02 | 1.3917 | 0.3926
298.15 K, x2 = 0.4789 | 790.28 | 1.3931 | 0.3996
298.15 K, x2 = 0.56 | 804.04 | 1.3947 | 0.4071
298.15 K, x2 = 0.6402 | – | 1.3965 | –
298.15 K, x2 = 0.651 | 819.66 | – | 0.4149
298.15 K, x2 = 0.7201 | 831.66 | 1.3978 | 0.4229
298.15 K, x2 = 0.8791 | 859.85 | 1.4011 | 0.4396
298.15 K, x2 = 0.9585 | 874.29 | 1.4028 | 0.4489
308.15 K, x2 = 0 | 700.4 | 1.3784 | 0.3222
308.15 K, x2 = 0.0542 | 709.15 | 1.3793 | 0.3269
308.15 K, x2 = 0.1599 | 726.3 | 1.3812 | 0.3363
308.15 K, x2 = 0.1934 | 731.73 | 1.3818 | 0.3393
308.15 K, x2 = 0.3199 | 752.47 | 1.3842 | 0.3509
308.15 K, x2 = 0.4 | 765.73 | 1.3857 | 0.3584
308.15 K, x2 = 0.4789 | 778.88 | 1.3873 | 0.3659
308.15 K, x2 = 0.56 | 792.57 | 1.3889 | 0.3736
308.15 K, x2 = 0.6402 | – | 1.3906 | –
308.15 K, x2 = 0.651 | 806.31 | – | 0.3813
308.15 K, x2 = 0.7201 | 820.22 | 1.3923 | 0.3891
308.15 K, x2 = 0.8791 | 848.66 | 1.3958 | 0.4049
308.15 K, x2 = 0.9585 | 863.3 | 1.3977 | 0.4129

CCCN [propan-1-amine] + CCC(C)(C)O
Conditions | mass density, 288.15 K [kg/m3] | mass density, 298.15 K [kg/m3] | mass density, 308.15 K [kg/m3] | refractive index, 288.15 K | refractive index, 298.15 K | refractive index, 308.15 K | viscosity, 288.15 K [mPa·s] | viscosity, 298.15 K [mPa·s] | viscosity, 308.15 K [mPa·s]
[1], x2 = 0 | – | – | – | 1.3899 | 1.3844 | 1.3784 | – | – | –
[1], x2 = 0.0733 | – | – | – | 1.392 | 1.3868 | 1.3809 | – | – | –
[1], x2 = 0.1528 | – | – | – | 1.3944 | 1.3893 | 1.3835 | – | – | –
[1], x2 = 0.2327 | – | – | – | 1.3968 | 1.3917 | 1.386 | – | – | –
[1], x2 = 0.3155 | – | – | – | 1.3989 | 1.394 | 1.3884 | – | – | –
[1], x2 = 0.398 | – | – | – | 1.4009 | 1.3961 | 1.3906 | – | – | –
[1], x2 = 0.4888 | – | – | – | 1.4028 | 1.398 | 1.3926 | – | – | –
[1], x2 = 0.5804 | – | – | – | 1.4043 | 1.3996 | 1.3944 | – | – | –
[1], x2 = 0.6697 | – | – | – | 1.4053 | 1.4005 | 1.3954 | – | – | –
[1], x2 = 0.7769 | – | – | – | 1.4058 | 1.4012 | 1.3962 | – | – | –
[1], x2 = 0.8741 | – | – | – | 1.406 | 1.4013 | 1.3964 | – | – | –
[1], x2 = 0.9498 | – | – | – | 1.4061 | 1.4014 | 1.3966 | – | – | –
[2], x2 = 0 | 721.57 | 711.08 | 700.4 | – | – | – | 0.3851 | 0.3585 | 0.3222
[2], x2 = 0.0733 | 731.65 | 721.43 | 710.97 | – | – | – | 0.4625 | 0.4161 | 0.3822
[2], x2 = 0.1528 | 742.12 | 732.03 | 721.79 | – | – | – | 0.5521 | 0.4813 | 0.4437
[2], x2 = 0.2327 | 752 | 742.1 | 732.07 | – | – | – | 0.6938 | 0.5258 | 0.501
[2], x2 = 0.3155 | 761.54 | 751.82 | 741.93 | – | – | – | 0.8513 | 0.6157 | 0.5725
[2], x2 = 0.398 | 770.38 | 760.84 | 751.09 | – | – | – | 1.041 | 0.7142 | 0.6756
[2], x2 = 0.4888 | 779.41 | 770.02 | 760.39 | – | – | – | 1.354 | 0.8835 | 0.8338
[2], x2 = 0.5804 | 787.76 | 778.45 | 768.97 | – | – | – | 1.827 | 1.129 | 1.03
[2], x2 = 0.6697 | 795.11 | 785.88 | 776.64 | – | – | – | 2.39 | 1.468 | 1.283
[2], x2 = 0.7769 | 802.69 | 793.82 | 784.6 | – | – | – | 3.288 | 1.974 | 1.664
[2], x2 = 0.8741 | 808.3 | 799.58 | 790.43 | – | – | – | 4.258 | 2.565 | 2.03
[2], x2 = 0.9498 | 811.88 | 803.1 | 793.93 | – | – | – | 5.17 | 3.068 | 2.304
